# Laboratory results taken from patent publication US8952024B2, “Herbicidal pyrimidone derivatives” (E I du Pont de Nemours and Company, priority 2009, dated 2015).
# Tests used:
# Format in all cases: in vivo
# [1] = test system: morningglory (Ipomoea spp.); assay: Test A pre-/postemergence plant response
# In short: (§1)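 Seeds planted in loam soil/sand blend; test chemicals in non-phytotoxic solvent mixture with surfactant applied as directed soil spray preemergence and, concurrently, postemergence to plants 2–10 cm tall at one- to two-leaf stage. Greenhouse ~10 days; visual injury vs untreated controls, 0 (no effect) to 100 (complete control).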
# [2] = test system: large crabgrass (Digitaria sanguinalis); assay: Test A pre-/postemergence plant response
# In short: as §1
# [3] = test system: barnyardgrass (Echinochloa crus-galli); assay: Test A pre-/postemergence plant response
# In short: as §1
# [4] = test system: wheat (Triticum aestivum); assay: Test A pre-/postemergence plant response
# In short: as §1
# [5] = test system: pigweed (Amaranthus retroflexus); assay: Test A pre-/postemergence plant response
# In short: as §1
# [6] = test system: velvetleaf (Abutilon theophrasti); assay: Test A pre-/postemergence plant response
# In short: as §1
# [7] = test system: corn (Zea mays); assay: Test A pre-/postemergence plant response
# In short: as §1
# [8] = test system: giant foxtail (Setaria faberii); assay: Test A pre-/postemergence plant response
# In short: as §1
# [9] = test system: cocklebur (Xanthium strumarium); assay: Test B pre-/postemergence plant response
# In short: (§2)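 Steps: sow seed in loam–sand soil and spray preemergence, or grow plants in peat-based medium to 1–4 leaves (2–18 cm) and spray postemergence; formulation is non-phytotoxic solvent plus surfactant; hold in greenhouse 13–15 days; score visually vs controls, 0 = no effect, 100 = complete control.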
# [10] = test system: green foxtail (Setaria viridis); assay: Test B pre-/postemergence plant response
# In short: as §2
# [11] = test system: giant foxtail (Setaria faberii); assay: Test B pre-/postemergence plant response
# In short: as §2
# [12] = Postemergence, 125 g ai/ha, visual injury, 0 to 100 scale (0 no effect, 100 complete control), approx. ten days
# [13] = Postemergence, 500 g ai/ha, 0 to 100 scale, 0 = no effect, 100 = complete control, approx. ten days
# [14] = Preemergence, 125 g ai/ha, 0 to 100 scale, 0 = no effect, 100 = complete control
# [15] = Preemergence, 500 g ai/ha, visual injury, 0 to 100 scale (0 no effect, 100 complete control), approx. ten days
# [16] = 31 g ai/ha, postemergence, scale 0 to 100, 0 is no effect, 100 is complete control
# [17] = 250 g ai/ha, Preemergence, 0 to 100 scale
# [18] = Postemergence, 62 g ai/ha, scale 0 (no effect) to 100 (complete control), 13 to 15 days
# [19] = Postemergence, 125 g ai/ha, visual rating after 13 to 15 days, scale 0 (no effect) to 100 (complete control)
# [20] = Postemergence, 250 g ai/ha, scale 0 to 100 (0 no effect, 100 complete control)
# [21] = Preemergence, 31 g ai/ha, scale 0 to 100 (0 no effect, 100 complete control)
# [22] = Preemergence, 62 g ai/ha, scale 0 to 100, 0 no effect, 100 complete control
# [23] = Preemergence, 125 g ai/ha, scale 0 to 100, 0 no effect, 100 complete control
# [24] = Postemergence, 31 g ai/ha, scale 0 to 100 (0 no effect, 100 complete control)
# [25] = Postemergence, 250 g ai/ha, scale 0 to 100
# [26] = Preemergence, 125 g ai/ha, 0 to 100 scale
smiles,measurement,setting,value
O=C1CCCC(O)=C1C(=O)c1cnc(-c2cccs2)n(-c2ccccc2)c1=O [Compound 66],Morningglory plant response rating,[1]; [12],90
same,"Plant response rating, Morningglory",[1]; [13],90
same,"Plant response rating, Morningglory",[1]; [14],0
same,"Plant response rating, Morningglory",[1]; [15],30
same,"Crabgrass, Large plant response rating",[2]; [12],70
same,"Plant response rating, Crabgrass, Large",[2]; [13],90
same,"Plant response rating, Crabgrass, Large",[2]; [14],90
same,"Plant response rating, Crabgrass, Large",[2]; [15],100
same,Barnyardgrass plant response rating,[3]; [12],80
same,"Plant response rating, Barnyardgrass",[3]; [13],90
same,"Plant response rating, Barnyardgrass",[3]; [14],20
same,"Plant response rating, Barnyardgrass",[3]; [15],70
same,Wheat plant response rating,[4]; [12],0
same,"Plant response rating, Wheat",[4]; [13],0
same,"Plant response rating, Wheat",[4]; [14],0
same,"Plant response rating, Wheat",[4]; [15],0
same,Pigweed plant response rating,[5]; [12],100
same,"Plant response rating, Pigweed",[5]; [13],100
same,"Plant response rating, Pigweed",[5]; [14],90
same,"Plant response rating, Pigweed",[5]; [15],100
same,Velvetleaf plant response rating,[6]; [12],100
same,"Plant response rating, Velvetleaf",[6]; [13],100
same,"Plant response rating, Velvetleaf",[6]; [14],70
same,"Plant response rating, Velvetleaf",[6]; [15],100
same,"Plant response rating, Corn",[7]; [13],60
same,"Plant response rating, Corn",[7]; [14],0
same,"Plant response rating, Corn",[7]; [15],0
same,"Foxtail, Giant plant response rating",[8]; [12],70
same,"Plant response rating, Foxtail, Giant",[8]; [13],80
same,"Plant response rating, Foxtail, Giant",[8]; [15],80
same,"Plant response rating, Cocklebur",[9]; [16],10
same,"Plant response rating, Cocklebur",[9]; [17],0
same,"Plant response rating, Cocklebur",[9]; [18],10
same,"Plant response rating, Cocklebur",[9]; [19],25
same,"Plant response rating, Cocklebur",[9]; [20],45
same,"Plant response rating, Cocklebur",[9]; [21],0
same,"Plant response rating, Cocklebur",[9]; [22],0
same,"Plant response rating, Cocklebur",[9]; [23],0
same,"Plant response rating, Foxtail, Green",[10]; [16],80
same,"Plant response rating, Foxtail, Green",[10]; [17],75
same,"Plant response rating, Foxtail, Green",[10]; [18],85
same,"Plant response rating, Foxtail, Green",[10]; [19],90
same,"Plant response rating, Foxtail, Green",[10]; [20],98
same,"Plant response rating, Foxtail, Green",[10]; [21],0
same,"Plant response rating, Foxtail, Green",[10]; [22],5
same,"Plant response rating, Foxtail, Green",[10]; [23],30
same,"Plant response rating, Foxtail, Giant",[11]; [16],65
same,"Plant response rating, Foxtail, Giant",[11]; [17],80
same,"Plant response rating, Foxtail, Giant",[11]; [18],75
same,"Plant response rating, Foxtail, Giant",[11]; [19],80
same,"Plant response rating, Foxtail, Giant",[11]; [20],95
same,"Plant response rating, Foxtail, Giant",[11]; [21],15
same,"Plant response rating, Foxtail, Giant",[11]; [22],20
same,"Plant response rating, Foxtail, Giant",[11]; [23],75
O=C1CCCC(O)=C1C(=O)c1cnc(-c2cccc(Cl)c2)n(-c2ccccc2)c1=O [Compound 34],Morningglory plant response rating,[1]; [12],80
same,"Plant response rating, Morningglory",[1]; [13],100
same,"Plant response rating, Morningglory",[1]; [14],10
same,"Plant response rating, Morningglory",[1]; [15],60
same,"Crabgrass, Large plant response rating",[2]; [12],90
same,"Plant response rating, Crabgrass, Large",[2]; [13],100
same,"Plant response rating, Crabgrass, Large",[2]; [14],90
same,"Plant response rating, Crabgrass, Large",[2]; [15],100
same,Barnyardgrass plant response rating,[3]; [12],90
same,"Plant response rating, Barnyardgrass",[3]; [13],100
same,"Plant response rating, Barnyardgrass",[3]; [14],10
same,"Plant response rating, Barnyardgrass",[3]; [15],100
same,Wheat plant response rating,[4]; [12],0
same,"Plant response rating, Wheat",[4]; [13],30
same,"Plant response rating, Wheat",[4]; [14],0
same,"Plant response rating, Wheat",[4]; [15],0
same,Pigweed plant response rating,[5]; [12],100
same,"Plant response rating, Pigweed",[5]; [13],100
same,"Plant response rating, Pigweed",[5]; [14],90
same,"Plant response rating, Pigweed",[5]; [15],100
same,Velvetleaf plant response rating,[6]; [12],100
same,"Plant response rating, Velvetleaf",[6]; [13],100
same,"Plant response rating, Velvetleaf",[6]; [14],50
same,"Plant response rating, Velvetleaf",[6]; [15],100
same,Corn plant response rating,[7]; [12],0
same,"Plant response rating, Corn",[7]; [13],30
same,"Plant response rating, Corn",[7]; [14],0
same,"Plant response rating, Corn",[7]; [15],0
same,"Foxtail, Giant plant response rating",[8]; [12],90
same,"Plant response rating, Foxtail, Giant",[8]; [13],100
same,"Plant response rating, Foxtail, Giant",[8]; [14],60
same,"Plant response rating, Foxtail, Giant",[8]; [15],100
same,"Plant response rating, Cocklebur",[9]; [17],85
same,"Plant response rating, Cocklebur",[9]; [24],0
same,"Plant response rating, Cocklebur",[9]; [18],25
same,"Plant response rating, Cocklebur",[9]; [19],85
same,Cocklebur plant response rating,[9]; [25],95
same,"Plant response rating, Cocklebur",[9]; [21],0
same,"Plant response rating, Cocklebur",[9]; [22],55
same,Cocklebur plant response rating,[9]; [26],75
same,"Plant response rating, Foxtail, Green",[10]; [17],100
same,"Plant response rating, Foxtail, Green",[10]; [24],70
same,"Plant response rating, Foxtail, Green",[10]; [18],90
same,"Plant response rating, Foxtail, Green",[10]; [19],90
same,"Foxtail, Green plant response rating",[10]; [25],95
same,"Plant response rating, Foxtail, Green",[10]; [21],50
same,"Plant response rating, Foxtail, Green",[10]; [22],70
same,"Foxtail, Green plant response rating",[10]; [26],90
same,"Plant response rating, Foxtail, Giant",[11]; [17],100
same,"Plant response rating, Foxtail, Giant",[11]; [24],85
same,"Plant response rating, Foxtail, Giant",[11]; [18],90
same,"Plant response rating, Foxtail, Giant",[11]; [19],95
same,"Foxtail, Giant plant response rating",[11]; [25],95
same,"Plant response rating, Foxtail, Giant",[11]; [21],15
same,"Plant response rating, Foxtail, Giant",[11]; [22],55
same,"Foxtail, Giant plant response rating",[11]; [26],90
